In series [1] the target is ATP-dependent translocase ABCB1 (Homo sapiens, UniProt P08183). Put plainly: (§1) TP_TRANSPORTER: Northern blot from primary hepatocytes. It is filed as functional, cell-based, Hepatocyte.
Series [2] deals with ATP-dependent translocase ABCB1 (Rattus norvegicus, UniProt P43245). The series is described as §1. In kind it is functional, cell-based, Hepatocyte.
Sequence of ATP-dependent translocase ABCB1 (Rattus norvegicus, UniProt P43245) (P43245 whole entry): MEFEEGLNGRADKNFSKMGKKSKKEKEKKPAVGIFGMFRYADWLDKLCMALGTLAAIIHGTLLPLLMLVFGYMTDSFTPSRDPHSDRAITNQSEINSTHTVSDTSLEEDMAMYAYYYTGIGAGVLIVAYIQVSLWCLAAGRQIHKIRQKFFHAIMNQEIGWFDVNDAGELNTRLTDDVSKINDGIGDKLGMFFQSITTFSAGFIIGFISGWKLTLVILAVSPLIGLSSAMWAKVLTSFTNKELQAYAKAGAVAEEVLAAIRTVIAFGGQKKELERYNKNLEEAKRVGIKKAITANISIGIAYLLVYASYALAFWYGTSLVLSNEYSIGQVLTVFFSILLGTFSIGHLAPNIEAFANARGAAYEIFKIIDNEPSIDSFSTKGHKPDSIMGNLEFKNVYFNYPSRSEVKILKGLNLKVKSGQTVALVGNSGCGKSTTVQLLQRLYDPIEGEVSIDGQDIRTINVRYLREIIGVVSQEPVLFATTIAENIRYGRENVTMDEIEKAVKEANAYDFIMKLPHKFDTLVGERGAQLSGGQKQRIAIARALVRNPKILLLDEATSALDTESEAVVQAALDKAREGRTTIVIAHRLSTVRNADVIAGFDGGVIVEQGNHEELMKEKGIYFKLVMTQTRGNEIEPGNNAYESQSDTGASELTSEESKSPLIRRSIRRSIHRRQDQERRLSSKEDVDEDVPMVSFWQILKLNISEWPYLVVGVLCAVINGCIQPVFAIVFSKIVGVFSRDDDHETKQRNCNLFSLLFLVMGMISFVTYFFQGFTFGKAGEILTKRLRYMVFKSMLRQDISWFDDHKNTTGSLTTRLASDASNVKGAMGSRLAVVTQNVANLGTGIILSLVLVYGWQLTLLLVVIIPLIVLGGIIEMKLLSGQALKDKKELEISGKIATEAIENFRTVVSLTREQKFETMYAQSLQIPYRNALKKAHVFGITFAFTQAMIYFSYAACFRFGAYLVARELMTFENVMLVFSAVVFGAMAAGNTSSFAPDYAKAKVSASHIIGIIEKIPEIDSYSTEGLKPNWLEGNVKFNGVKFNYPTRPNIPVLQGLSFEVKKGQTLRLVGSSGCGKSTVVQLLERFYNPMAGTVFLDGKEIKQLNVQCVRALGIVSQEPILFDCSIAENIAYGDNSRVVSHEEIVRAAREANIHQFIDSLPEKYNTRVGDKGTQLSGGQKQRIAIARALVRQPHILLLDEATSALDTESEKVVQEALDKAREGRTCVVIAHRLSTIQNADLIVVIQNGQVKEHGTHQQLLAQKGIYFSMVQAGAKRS

Sequence of ATP-dependent translocase ABCB1 (Homo sapiens, UniProt P08183) (P08183 whole entry): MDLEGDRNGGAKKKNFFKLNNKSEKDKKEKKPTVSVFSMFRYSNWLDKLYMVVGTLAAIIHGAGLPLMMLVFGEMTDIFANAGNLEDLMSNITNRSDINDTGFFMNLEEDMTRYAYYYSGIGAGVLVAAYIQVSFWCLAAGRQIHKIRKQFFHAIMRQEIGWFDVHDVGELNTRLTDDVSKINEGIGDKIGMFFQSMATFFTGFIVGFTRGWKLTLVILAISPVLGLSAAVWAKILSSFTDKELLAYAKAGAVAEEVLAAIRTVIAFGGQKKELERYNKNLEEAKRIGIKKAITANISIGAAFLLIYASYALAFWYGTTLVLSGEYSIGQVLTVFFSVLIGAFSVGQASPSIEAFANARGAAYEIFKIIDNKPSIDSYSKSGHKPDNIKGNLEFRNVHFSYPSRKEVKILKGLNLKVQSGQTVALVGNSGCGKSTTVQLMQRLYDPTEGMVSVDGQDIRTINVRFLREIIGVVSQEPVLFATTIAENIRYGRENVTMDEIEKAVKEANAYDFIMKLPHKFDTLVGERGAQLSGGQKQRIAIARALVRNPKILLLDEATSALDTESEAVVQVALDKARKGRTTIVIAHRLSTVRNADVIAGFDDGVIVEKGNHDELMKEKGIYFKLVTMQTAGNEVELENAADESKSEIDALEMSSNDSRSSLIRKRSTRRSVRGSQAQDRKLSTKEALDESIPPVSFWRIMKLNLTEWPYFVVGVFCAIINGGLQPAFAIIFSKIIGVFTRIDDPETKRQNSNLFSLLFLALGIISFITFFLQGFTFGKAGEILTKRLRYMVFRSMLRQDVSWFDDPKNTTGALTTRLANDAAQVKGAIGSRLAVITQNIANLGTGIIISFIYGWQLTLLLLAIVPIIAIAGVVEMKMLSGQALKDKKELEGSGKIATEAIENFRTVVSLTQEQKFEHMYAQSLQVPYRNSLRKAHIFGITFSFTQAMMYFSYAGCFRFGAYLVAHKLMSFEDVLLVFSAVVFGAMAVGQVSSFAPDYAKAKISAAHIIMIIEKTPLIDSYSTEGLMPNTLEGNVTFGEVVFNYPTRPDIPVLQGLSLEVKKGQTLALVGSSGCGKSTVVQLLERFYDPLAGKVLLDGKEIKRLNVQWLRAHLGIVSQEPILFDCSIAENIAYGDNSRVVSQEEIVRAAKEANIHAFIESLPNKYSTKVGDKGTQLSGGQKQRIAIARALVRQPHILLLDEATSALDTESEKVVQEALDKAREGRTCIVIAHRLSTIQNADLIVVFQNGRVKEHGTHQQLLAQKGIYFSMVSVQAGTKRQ

For the compound `CC(=O)Nc1ccc2c(c1)Cc1ccccc1-2` [2-ACETYLAMINOFLUORENE], the Activity result is “is not an inducer [-]” in series [1] and “inducer [+]” in series [2].

The values above are taken from ChEMBL document CHEMBL2074376, “Differential regulation of mdr genes in response to 2-acetylaminofluorene treatment in cultured rat and human hepatocytes” (Carcinogenesis, 1996).
